Publication PMC10743905, “Design, Synthesis, and In Vitro and In Vivo Bioactivity Studies of Hydrazide–Hydrazones of 2,4-Dihydroxybenzoic Acid” (International Journal of Molecular Sciences, 2023)
“Also recorded” adds a separate entry of the source.

Tests used:
H1563 = assay: MTT antiproliferative assay; assay type: cell-based, human; details: for IC50: MTT, 24 h incubation, lung adenocarcinoma; for Selectivity Index: ratio IC50 HEK-293 / IC50 H1563
Procedure: (§1) The in vitro studies were performed on the reference line HEK-293 (human embryonic kidney cells, ATCC® CRL-1573™) and […] human cancer cell lines: 769-P (adenocarcinoma, renal cells, ATCC® CRL-1933™) and HepG2 (carcinoma, hepatocellular, ATCC® HB-8065™), H1563 (adenocarcinoma, non-smallcell lung cancer, ATCC® CRL-5875™), LN-229 (glioblastoma, ATCC® CRL-2611™). Cells from the 769-P and H1563 cell lines were cultured in RPMI-1640 growth medium (PAN Biotech GmbH, Aidenbach, Bayern, Germany), cells from the HEK-293 and HepG2 cell lines were cultured in EMEM growth medium (PAN Biotech GmbH, Aidenbach, Bayern, Germany), and cells from the LN-229 cell line were cultured in DMEM growth medium (PAN Biotech GmbH, Aidenbach, Bayern, Germany) in sterile 75 cm^2 culture phalcones. Fetal bovine serum (PAN Biotech GmbH, Aidenbach, Bayern, Germany) at 10% of growth medium and antibiotics (Sigma-Aldrich, Poland) (2.5 µg/mL amphotericin B, 100 µg/mL penicillin, and 100 µg/mL streptomycin) were added to all media. Cells were cultured at 37 °C in an incubator with 5% CO2 flow until a cell layer was formed. Following this, the medium was removed, and the cells were washed with 0.25% trypsin solution with 2.21 mM EDTA (Corning Incorporated, Corning, NY, USA) in order to completely remove fetal bovine serum containing trypsin inhibitor. Finally, 6 mL of complete growth medium was added, and the cells were aspirated by gentle pipetting.
(§2) The determination of inhibitory concentration (IC50) in the HEK-293, 769-P, HepG2, H1563, and LN-229 cell cultures for selected hydrazide–hydrazones was performed using the MTT assay procedure. This test was performed according to the MTT Assay ECVAM n°17 protocol manual prepared by the European Centre for the Validation of Alternative Methods (ECVAM), an entity that aims to reduce in vivo testing in favor of in vitro and in silico methods. To 96-well sterile plates, 100 μL of cell suspensions, prepared in the appropriate medium at a concentration of 3 × 10^5 cells/mL, was added using a multichannel pipette. To achieve cell adhesion to the bottom of the plates, cells were incubated for 24 h at 37 °C with 5% CO2 flow and 90% humidity. To determine the growth-inhibitory concentration, the solutions of the tested substances (19–24) were prepared at concentrations ranging from 1 µM to 500 µM, added individually to the wells following the rule of 8 wells per concentration, and the plates were again incubated for 24 h at 37 °C and with 5% CO2 addition. We also prepared a background control (200 μL of the respective growth medium) and negative control (100 μL of cells in the appropriate growth medium + 100 μL of the growth medium), which provided information on the amount of formazan formed in the untreated cells. After a 24 h incubation period, the solutions were extracted from the cells; 190 μL of growth medium and 10 μL of 5 mg/mL MTT solution (Invitrogen, Waltham, MA, USA) were added each and incubated for 4 h. After this time, all medium was removed, 100 μL of DMSO (Corning Incorporated, Corning, NY, USA) was added to each well, and absorbance measurements were performed at 550 nm using a Power Weave xs spectrophotometric microplate reader (BioTek, Winooski, VT, USA). The decrease in absorbance is equivalent to the decrease in MTT formazan production, which is due to the decrease in mitochondrial dehydrogenase activity and indicates a cytotoxic effect from the tested substances. Cell viability is expressed as a percentage as the ratio of the absorbance of test substance-treated cells to the untreated cells. The experiments were repeated three times.
(§3) The significance level was taken as p < 0.05.

LN-229 = assay: MTT antiproliferative assay; assay type: cell-based, human; details: for IC50: Homo sapiens, LN-229, MTT, 24 h incubation, glioblastoma; for Selectivity Index: ratio IC50 HEK-293 / IC50 LN-229
Procedure: as §1, §2, §3

769-P = assay: MTT antiproliferative assay; assay type: cell-based, human; details: for IC50: Homo sapiens, 769-P, MTT, 24 h incubation, renal adenocarcinoma; for Selectivity Index: ratio IC50 HEK-293 / IC50 769-P
Procedure: as §1, §2, §3

Danio rerio embryos = assay: Fish Embryo Acute Toxicity (FET) test, OECD No. 236; details: for toxicity for zebrafish embryos and larvae (in words): FET test, based on LC50; for percentage of non-lethal morphological abnormalities: zebrafish larvae 96 hpf; for heart rate vs negative (E3) and solvent (1% DMSO) controls: zebrafish larvae, 96 h
Procedure: Wild-type AB strain zebrafish (Danio rerio) were housed in the Experimental Medicine Centre of Medical University of Lublin (Lublin, Poland), where all the experimental procedures on embryos and larvae were carried out. The animals were kept on a recirculating water supply at 26 ± 1 °C and a 10/14 dark–light cycle, and they were fed with artemia and commercial feed. Danio rerio embryos were obtained from females between 4 and 15 months of age. […] In order to avoid genetic bias in the study, eggs were randomly collected from at least three breeding groups, rinsed, and placed in Petri dishes in the cultured medium, which for Danio rerio is E3 solution. […] In accordance with the legislation of the European Union and Poland, the experiments performed on the earliest life-stages of Danio rerio until 120 h post-fertilization (120 hpf), not defined as protected, are not subject to regulations for animal experimentation.
They address the testing of chemicals using the Fish Embryo Acute Toxicity (FET) test with the species Danio rerio.
Immediately after fertilization, eggs were placed in sterile 24-well plates and exposed for 96 h to at least five concentrations of the test chemical, ranging from 1 to 500 µM and prepared ex tempore on each day of exposure, according to the principle of one egg per well and one concentration per plate. In each plate, 20 wells were filled with the solutions of the tested substance, and 4 wells of the last column were a negative internal control with E3 medium. Each well was filled with 2 mL of solution. Positive control plates were also prepared according to this scheme with 4 mg/L of 3,4-dichloroaniline (Sigma-Aldrich, Poznań, Poland) and a negative control with E3, and a negative solvent control with 1% DMSO, which was used as a solvent for the tested substances. At four time points, microscopic observations were made every 24 h. As indicators of mortality (so-called terminal observations; when at least one of these occurs, embryonic death is declared), the following were recorded: the coagulation of embryos, a lack of somite formation, a lack of detachment of the tail from the yolk sac and a lack of a heartbeat, which was observed from the 48th hour of the study. To confirm the absence of a heartbeat, a microscopic observation was conducted at 80× magnification for one minute. Then, the solutions of the tested chemicals, to maintain their constant composition throughout the test, were replaced with fresh ones, and the plates were incubated for another 24 h in an incubator at 26 ± 1 °C. […] In addition, a quantitative and qualitative summary of the morphological and physiological abnormalities that occurred in the tested Danio rerio embryos and larvae was also made. These included yolk sac edema, pericardial edema, spinal flexure, head deformities, tail deformities, developmental delay defined as a lack of hatching success for 96 hpf larvae, and also bradycardia.
Regression analysis was performed with Excel, and the above-mentioned values were obtained from the linear type of regression analysis. […] The results obtained from the heart rate study of 96 hpf zebrafish larvae were subjected to statistical analysis using one-way analysis of variance (ANOVA) and a post hoc Bonferroni test. The significance level was taken as p < 0.05.

[1] = zebrafish, 500 µM (150.62 mg/L)

Structure (SMILES) | IC50 (H1563; Homo sapiens, NCI-H1563, 24 h) [µM] | IC50 (H1563) [µM] | Selectivity Index (H1563) | IC50 (LN-229) [µM] | Selectivity Index (LN-229) | IC50 (769-P) [µM] | Selectivity Index (769-P) | toxicity for zebrafish embryos and larvae (in words) (Danio rerio embryos) | percentage of non-lethal morphological abnormalities (Danio rerio embryos) [%] | percentage of development delay (Danio rerio embryos; [1]) [%] | percentage of tail malformation (Danio rerio embryos; [1]) [%] | percentage of yolk sac edema (Danio rerio embryos; zebrafish embryos and larvae, 100 µM (35.52 mg/L)) [%] | heart rate vs negative (E3) and solvent (1% DMSO) controls (Danio rerio embryos; 50 µM (13.71 mg/L)) | heart rate vs negative (E3) and solvent (1% DMSO) controls (Danio rerio embryos; 100 µM (27.42 mg/L), p < 0.01) | heart rate vs negative (E3) and solvent (1% DMSO) controls (Danio rerio embryos; 500 µM (137.12 mg/L), p < 0.001) | percentage of pericardial edema (Danio rerio embryos; zebrafish, 100 µM (27.42 mg/L)) [%] | percentage of pericardial edema (Danio rerio embryos; zebrafish, 500 µM (137.12 mg/L)) [%]
O=C(N/N=C/c1ccccc1[N+](=O)[O-])c1ccc(O)cc1O [Compound 19, 2,4-dihydroxy-N-[(2-nitrophenyl)methylidene]benzohydrazide] | 65.7 | 65.6 | 2.27 × 10^3 | 130 | 1.14 × 10^3 | 45.4 | 3.29 × 10^3 | nontoxic; also recorded: negligible toxicity | ≤ 25 |  |  |  |  |  |  |  | 
O=C(N/N=C/c1cccc([N+](=O)[O-])c1)c1ccc(O)cc1O [Compound 20, 2,4-dihydroxy-N-[(3-nitrophenyl)methylidene]benzohydrazide] | 70.9 |  | 1.89 × 10^2 | > 500 |  | > 500 |  | nontoxic | ≤ 25 |  |  |  |  |  |  |  | 
O=C(N/N=C/c1ccc([N+](=O)[O-])cc1)c1ccc(O)cc1O [Compound 21, 2,4-dihydroxy-N-[(4-nitrophenyl)methylidene]benzohydrazide] | > 500 |  |  | 0.77 |  | 12.4 |  | moderate toxicity |  | 10 | 55 |  |  |  |  |  | 
O=C(N/N=C/c1ccccc1Cl)c1ccc(O)cc1O [Compound 22, N-[(2-chlorophenyl)methylidene]-2,4-dihydroxybenzohydrazide] | 217 |  | 1.45 | 111 | 2.85 | 262 | 1.20 | quite toxic |  |  |  |  |  |  |  |  | 
O=C(N/N=C/c1ccccc1Br)c1ccc(O)cc1O [Compound 23, N-[(2-bromophenyl)methylidene]-2,4-dihydroxybenzohydrazide] | 101 |  | 9.08 × 10^2 | 157 | 5.85 × 10^2 | > 500 |  | quite toxic |  |  |  | 80 |  |  |  |  | 
O=C(N/N=C/c1ccccc1F)c1ccc(O)cc1O [Compound 24, N-[(2-fluorophenyl)methylidene]-2,4-dihydroxybenzohydrazide] | 200 |  | 1.94 | 199 | 1.94 | > 500 |  | nontoxic |  |  |  |  | no changes | decrease in heartbeat (bradycardia) | the reduction was very statistically significant | 65 | 85
